Data reported in patent US10125134B2 (Mirati Therapeutics, Inc., priority 2016, dated 2018).
Where two headings read alike, the source gives them in different places.

Tests used:
KRas G12C = KRas G12C (Homo sapiens, UniProt P01116, C118S/C51S/C80L/G12C); assay: KRas G12C Modification Assay (LCMS detection of covalent adduct); type: binding; conditions: normalized percent of control; tested at 5 μM concentration for 3 hours
Procedure, shortened: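 Cys-light KRas G12C mutant protein incubated with compound in K-Ras assay buffer, reactions quenched at set time points with 25 mM acetic acid and analysed by intact-protein LC/MS on a C-3 column. Deconvoluted mass heights expressed as percent of control (POC) relative to compound-free protein.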

[1] = system: NCI-H358 cells (express KRas G12C), Phospho-ERK; assay: Cellular inhibition of KRas G12C: Phospho-ERK in NCI-H358 cells; type: cell-based; conditions: pERK(Thr202/Tyr204) normalized with GAPDH, NCI-H358 cells, 3 hours, read-out: IC50
Procedure, shortened: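 IC50 derived by 4-parameter fit of GAPDH-normalized pERK(Thr202/Tyr204) signal, as percent of DMSO control. Signal came from in-cell immunodetection with infrared secondaries after 3 h compound exposure of KRas G12C NCI-H358 cells at 0.5% DMSO.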

Row | Compound | POC (KRas G12C) | IC50 ([1]; Homo sapiens, NCI-H358, 3 h) [nM] | IC50 ([1]; Homo sapiens) [nM] | IC50 [1] [nM]
1 | C=CC(=O)N1CCN(c2nc(O[C@H](C)CN(C)C)nc3c2CCN(c2cc(O)cc(OC(F)(F)F)c2)C3)CC1 [Example 91, (R)-1-(4-(2-((1-(dimethylamino)propan-2-yl)oxy)-7-(3-hydroxy-5-(trifluoromethoxy)phenyl)-5,6,7,8-tetrahydropyrido[3,4-d]pyrimidin-4-yl)piperazin-1-yl)prop-2-en-1-one] | A (“A”≤25% POC) |  | > 1000 | 
2 | C=CC(=O)N1CCN(c2nc(OC[C@@H]3CCCN3C)nc3c2CCN(c2cccc4ccccc24)C3)C[C@@H]1CC#N [Example 234, 2-((S)-1-acryloyl-4-(2-(((S)-1-methylpyrrolidin-2-yl)methoxy)-7-(naphthalen-1-yl)-5,6,7,8-tetrahydropyrido[3,4-d]pyrimidin-4-yl)piperazin-2-yl)acetonitrile] | C (“C”>50% POC) |  | 0.1 to 1000 | 
3 | C=CC(=O)N1CCN(c2nc(N3CCC(N(C)C)CC3)nc3c2CCN(c2cc(O)cc4ccccc24)C3)CC1 [Example 17, 1-(4-(2-(4-(dimethylamino)piperidin-1-yl)-7-(3-hydroxynaphthalen-1-yl)-5,6,7,8-tetrahydropyrido[3,4-d]pyrimidin-4-yl)piperazin-1-yl)prop-2-en-1-one] | B (“B”>25% POC−≤50% POC) | > 1000 |  | 
4 | C=CC(=O)N1CCN(c2nc(OC(C)CCN(C)C)nc3c2CCN(c2cc(O)cc4ccccc24)C3)CC1 (centres unmarked) [Example 21, 1-(4-(2-((4-(dimethylamino)butan-2-yl)oxy)-7-(3-hydroxynaphthalen-1-yl)-5,6,7,8-tetrahydropyrido[3,4-d]pyrimidin-4-yl)piperazin-1-yl)prop-2-en-1-one] | C (“C”>50% POC) | 0.1 to 1000 |  | 
5 | C=CC(=O)N1CCN(c2nc(O[C@H](C)CN3CC[C@@H](OC)C3)nc3c2CCN(c2cc(O)cc4ccccc24)C3)CC1 [Example 63, 1-(4-(7-(3-hydroxynaphthalen-1-yl)-2-(((R)-1-((R)-3-methoxypyrrolidin-1-yl)propan-2-yl)oxy)-5,6,7,8-tetrahydropyrido[3,4-d]pyrimidin-4-yl)piperazin-1-yl)prop-2-en-1-one] | C (“C”>50% POC) | > 1000 |  | 
6 | C=CC(=O)N1CCN(c2nc(OC[C@@H]3C[C@@H](O)CN3C)nc3c2CCN(c2ccccc2C(F)(F)F)C3)CC1CC#N (stereo partly drawn) [Example 312, 2-[4-[2-[[(2S,4R)-4-hydroxy-1-methyl-pyrrolidin-2-yl]methoxy]-7-[2-(trifluoromethyl)phenyl]-6,8-dihydro-5H-pyrido[3,4-d]pyrimidin-4-yl]-1-prop-2-enoyl-piperazin-2-yl]acetonitrile] | C (“C”>50% POC) | 0.1 to 1000 |  | 
7 | C=CC(=O)N1CCN(c2ncnc3c2CCN(c2cccc4ccccc24)C3)CC1 [Example 3, 1-(4-(7-(naphthalen-1-yl)-5,6,7,8-tetrahydropyrido[3,4-d]pyrimidin-4-yl)piperazin-1-yl)prop-2-en-1-one] | A (“A”≤25% POC) | > 1000 |  | 
8 | C=CC(=O)N1CCN(c2nc(N3CCN(CCO)CC3)nc3c2CCN(c2cc(O)cc4ccccc24)C3)CC1 [Example 26, 1-(4-(2-(4-(2-hydroxyethyl)piperazin-1-yl)-7-(3-hydroxynaphthalen-1-yl)-5,6,7,8-tetrahydropyrido[3,4-d]pyrimidin-4-yl)piperazin-1-yl)prop-2-en-1-one] | C (“C”>50% POC) | > 1000 |  | 
9 | C=CS(=O)(=O)N1CCN(c2nc(OC[C@@H]3CCCN3C)nc3c2CCN(c2cccc(C)c2C)C3)CC1 [Example 343, (S)-7-(2,3-dimethylphenyl)-2-((1-methylpyrrolidin-2-yl)methoxy)-4-(4-(vinylsulfonyl)piperazin-1-yl)-5,6,7,8-tetrahydropyrido[3,4-d]pyrimidine] | C (“C”>50% POC) | > 1000 |  | 
10 | C=CC(=O)N1CCN(c2nc(OCCCN3CC4CC4C3)nc3c2CCN(c2cc(O)cc4ccccc24)C3)CC1 (centres unmarked) [Example 206, 1-(4-(2-(3-(3-azabicyclo[3.1.0]hexan-3-yl)propoxy)-7-(3-hydroxynaphthalen-1-yl)-5,6,7,8-tetrahydropyrido[3,4-d]pyrimidin-4-yl)piperazin-1-yl)prop-2-en-1-one] | C (“C”>50% POC) |  | 0.1 to 1000 | 

Second part, led by results:

Row | POC (KRas G12C) | Compound | IC50 ([1]; Homo sapiens, NCI-H358, 3 h) [nM] | IC50 ([1]; Homo sapiens) [nM] | IC50 [1] [nM]
11 | C (“C”>50% POC) | C=CC(=O)N1CCN(c2nc(OC[C@@H]3CCCN3C)nc3c2CCN(c2cncc4ccccc24)C3)CC1CC#N (stereo partly drawn) [Example 260, 2-[4-[7-(4-isoquinolyl)-2-[[(2S)-1-methylpyrrolidin-2-yl]methoxy]-6,8-dihydro-5H-pyrido[3,4-d]pyrimidin-4-yl]-1-prop-2-enoyl-piperazin-2-yl]acetonitrile] | 0.1 to 1000 |  | 
12 | C (“C”>50% POC) | C=CC(=O)N1CCN(c2nc(OC[C@@H]3CCCN3C)nc3c2CCN(c2ccc(F)c4ccccc24)C3)C[C@@H]1CC#N [Example 316, 2-((S)-1-acryloyl-4-(7-(4-fluoronaphthalen-1-yl)-2-(((S)-1-methylpyrrolidin-2-yl)methoxy)-5,6,7,8-tetrahydropyrido[3,4-d]pyrimidin-4-yl)piperazin-2-yl)acetonitrile] | 0.1 to 1000 |  | 
13 | C (“C”>50% POC) | C=CC(=O)N1CCN(c2nc(OC[C@H]3CN(C)CCO3)nc3c2CCN(c2cccc4cccc(Cl)c24)C3)C[C@@H]1CC#N [Example 363, 2-[(2S)-4-[7-(8-chloro-1-naphthyl)-2-[[(2R)-4-methylmorpholin-2-yl]methoxy]-6,8-dihydro-5H-pyrido[3,4-d]pyrimidin-4-yl]-1-prop-2-enoyl-piperazin-2-yl]acetonitrile] | 0.1 to 1000 |  | 
14 | C (“C”>50% POC) | C=CC(=O)N1CCN(c2nc(OC[C@@H]3CCCN3CC)nc3c2CCN(c2cccc4ccccc24)C3)C[C@@H]1CC#N [Example 399, 2-((S)-1-acryloyl-4-(2-(((S)-1-ethylpyrrolidin-2-yl)methoxy)-7-(naphthalen-1-yl)-5,6,7,8-tetrahydropyrido[3,4-d]pyrimidin-4-yl)piperazin-2-yl)acetonitrile] | 0.1 to 1000 |  | 
15 | C (“C”>50% POC) | C=CC(=O)N1CCN(c2nc(OC[C@@H]3CCCN3CC)nc3c2CCN(c2cccc(Cl)c2C(F)(F)F)C3)C[C@@H]1CC#N [Example 339, 2-((S)-1-acryloyl-4-(7-(3-chloro-2-(trifluoromethyl)phenyl)-2-(((S)-1-ethylpyrrolidin-2-yl)methoxy)-5,6,7,8-tetrahydropyrido[3,4-d]pyrimidin-4-yl)piperazin-2-yl)acetonitrile] | 0.1 to 1000 |  | 
16 | C (“C”>50% POC) | C=CC(=O)N1CCN(c2nc(OC[C@@H]3CCCN3C)nc3c2CCN(c2cccc4ccc(Cl)cc24)C3)CC1CC#N (stereo partly drawn) [Example 253, 2-(1-acryloyl-4-(7-(7-chloronaphthalen-1-yl)-2-(((S)-1-methylpyrrolidin-2-yl)methoxy)-5,6,7,8-tetrahydropyrido[3,4-d]pyrimidin-4-yl)piperazin-2-yl)acetonitrile] | 0.1 to 1000 |  | 
17 | C (“C”>50% POC) | C=CC(=O)N1CCN(c2nc(OC[C@@H]3CCCN3C)nc3c2CCN(c2cc(OC)cc4ccccc24)C3)C[C@@H]1CC#N [Example 314, 2-[(2S)-4-[7-(3-methoxy-1-naphthyl)-2-[[(2S)-1-methylpyrrolidin-2-yl]methoxy]-6,8-dihydro-5H-pyrido[3,4-d]pyrimidin-4-yl]-1-prop-2-enoyl-piperazin-2-yl]acetonitrile] | 0.1 to 1000 |  | 
18 | C (“C”>50% POC) | C=CC(=O)N1CCN(c2nc(OC[C@@H]3CCCN3CCOC)nc3c2CCN(c2cccc4ccccc24)C3)CC1CC#N (stereo partly drawn) [Example 266, 2-(1-acryloyl-4-(2-(((S)-1-(2-methoxyethyl)pyrrolidin-2-yl)methoxy)-7-(naphthalen-1-yl)-5,6,7,8-tetrahydropyrido[3,4-d]pyrimidin-4-yl)piperazin-2-yl)acetonitrile] | 0.1 to 1000 |  | 
19 | C (“C”>50% POC) | CC#CC(=O)N1CCN(c2nc(OC[C@@H]3CCCN3C)nc3c2CCN(c2cccc4cccc(C)c24)C3)C[C@@H]1CC#N [Example 455, 2-((S)-1-(but-2-ynoyl)-4-(7-(8-methylnaphthalen-1-yl)-2-(((S)-1-methylpyrrolidin-2-yl)methoxy)-5,6,7,8-tetrahydropyrido[3,4-d]pyrimidin-4-yl)piperazin-2-yl)acetonitrile] | 0.1 to 1000 |  | 
20 | C (“C”>50% POC) | C=CC(=O)N1CCN(c2nc(OC[C@@H]3CCCN3C)nc3c2CCN(c2cccc4cccn24)C3)C[C@@H]1CC#N [Example 440, 2-((S)-1-acryloyl-4-(7-(indolizin-5-yl)-2-(((S)-1-methylpyrrolidin-2-yl)methoxy)-5,6,7,8-tetrahydropyrido[3,4-d]pyrimidin-4-yl)piperazin-2-yl)acetonitrile] | 0.1 to 1000 |  | 
21 | C (“C”>50% POC) | C=CC(=O)N1CCN(c2nc(OC[C@@H]3CCN(C)C3)nc3c2CCN(c2cccc4ccccc24)C3)C[C@@H]1CC#N [Example 409, 2-((S)-1-acryloyl-4-(2-(((R)-1-methylpyrrolidin-3-yl)methoxy)-7-(naphthalen-1-yl)-5,6,7,8-tetrahydropyrido[3,4-d]pyrimidin-4-yl)piperazin-2-yl)acetonitrile] | 0.1 to 1000 |  | 
22 | C (“C”>50% POC) | C=CC(=O)N1CCN(c2nc(OC[C@@H]3CCCN3C)nc3c2CCN(c2c(F)cccc2C(F)(F)F)C3)CC1CC#N (stereo partly drawn) [Example 411, 2-(1-acryloyl-4-(7-(2-fluoro-6-(trifluoromethyl)phenyl)-2-(((S)-1-methylpyrrolidin-2-yl)methoxy)-5,6,7,8-tetrahydropyrido[3,4-d]pyrimidin-4-yl)piperazin-2-yl)acetonitrile] |  |  | 0.1 to 1000
